Laboratory results published in patent US20230158042A1, “COMBINATION CANCER THERAPY WITH PENTAAZA MACROCYCLIC RING COMPLEX AND HORMONE THERAPY AGENT” (Galera Labs, LLC, priority 2020, published 2023).

Tests used:
MCF7-HTR cells [1] = assay: Clonogenic cell survival, hydroxy-Tam-resistant MCF7 cells with GC4419; assay type: cell-based, human; settings: 5 µM GC4419 for 5 days; 1 µM hydroxy-Tam
Description: (§1) Clonogenic cell survival assay. For the clonogenic survival analysis, exponentially growing cells were replated using appropriate dilutions, and clonogenic survival was evaluated after 14 days in regular growth medium. Cells were stained with crystal violet, and colonies of >50 cells were counted and utilized to calculate clonogenic survival^46.
(§2) To test parameters indicative of oxidative stress, a clonogenic assay with hydroxy-Tam and MnPAM dismutase mimetic treatments was performed. Cells were plated at a density of 50,000 cells per 60-mm dish and treated with 1 µM hydroxy-Tam (Sigma) and 5 µM GC4419 (Galera Therapeutics) for a total of 120 h. This protocol was repeated with a fresh medium change every 24 h for 5 days. On day 6, the cells were trypsinized, counted, and replated in control medium using appropriate dilutions, and clonogenic survival was evaluated.

T47D-HTR cells [2] = assay: Clonogenic cell survival, hydroxy-Tam-resistant T47D cells with GC4419; assay type: cell-based, human; settings: 5 µM GC4419 for 5 days; 1 µM hydroxy-Tam
Description: as §1, §2

MCF7-HTR cells [3] = assay: Ki-67 staining in MCF7-HTR cells; assay type: cell-based, human; settings: 5 µM GC4419 for 5 days
Text: (§3) With respect to FIG. 16a, the data from FIG. 7i, where MCF7-HTR cells were stained for Ki-67, as well as DAPI, were counted with ImageJ and quantified for average Ki-67 intensity as shown in the bar graph. With respect to FIGS. 16b and 16c, T47D and T47D-HTR cells were stained for Ki-67 as well as DAPI, and particles in the nucleus were counted with ImageJ and quantified for average Ki-67 intensity as shown in the bar graph. In FIGS. 16d and 16e, MCF7-HTR cells, and in FIGS. 16f and 16g, T47D-HTR cells, were treated with 5 µM GC4419 and/or 1 µM 4-hydroxy-Tam for 5 days, and then stained for Ki-67 as well as DAPI. Quantifications of average Ki-67 intensity are shown in the bar graphs. All experiments were done in triplicate. Error bars represent ± 1 SEM. ***p < 0.001. Representative images are shown.
(§4) Cells seeded on glass coverslips were fixed in 4% paraformaldehyde and then blocked with 1% BSA and 10% normal goat serum in 1x PBS. Cells were incubated with anti-Ki-67 (c-bioscience) antibody in 1x PBS followed by incubation with goat anti-rabbit IgG conjugated with Alexa Fluor 647 (Invitrogen) in 1x PBS with 5% goat serum. Cells were washed in 1x PBS, mounted, and imaged with a fluorescence microscope. Fluorescence images were captured using a laser scanning confocal microscope (Nikon A1 R). The paired images in all the figures were collected at the same gain and offset settings. […]

T47D-HTR cells [4] = assay: Ki-67 staining in T47D-HTR cells; assay type: cell-based, human; settings: 5 µM GC4419 for 5 days
Text: as §3, §4

LNCaP-ENZR cells = assay: Clonogenic cell survival in LNCaP-ENZR cells; assay type: cell-based; settings: GC4419 20 µM for 5 days, in the presence of ENZ
Description: (§5) FIGS. 21a-21b are a chart and graph showing that pharmacologically mimicking the activity of deacetylated lysine 68 MnSOD with a manganese pentaazamacrocyclic dismutase mimetic both inhibited the growth of LNCaP-ENZR tumors and reversed the enzalutamide resistance in LNCaP-ENZR / LNCaP—MnSOD^K68Q cells and tumors. In FIG. 21a, clonogenic cell survival experiments were performed in LNCaP-ENZR (left two bars) and LNCaP—MnSOD^K68Q (right two bars) treated with ENZ, with or without GC4419 (20 µM) for 5 days. […] Tumor volumes were measured three times a week for 46 days. For each group n=10. Error bars ± 1 SEM. All experiments done in triplicate. **p < 0.01.

[5] = test system: LNCaP-MnSOD^K68Q xenografts; assay: LNCaP-MnSOD^K68Q hind limb xenograft growth in nude mice; assay type: in vivo; settings: GC4419 10 mg/kg, once per week; tumor volumes for 46 days
Description: as §5

MCF7-Cispl-R cells [6] = assay: SOX2 and OCT4 levels in cisplatin-resistant MCF7 cells; assay type: cell-based, human; settings: data not shown
MCF7-Cispl-R cells [7] = assay: Cisplatin resistance phenotype of MCF7-Cispl-R cells (clonogenic cell survival); assay type: cell-based, human; settings: treated with GC4419
Description: FIGS. 27a-27c are an image and graphs showing that MnSOD—AcK68/ROS/HIF2α dysregulation directs PanR (multi-therapy resistance to cancer therapeutics). […] In FIG. 27b, ROS was measured in MCF7-Cispl-R cells, compared with MCF7 cells, using an Amplex Red assay. In FIG. 27c, MCF7 and MCF7-MnSOD^K68Q cells were measured by clonogenic cell survival assays, without and with cisplatin exposure, and infected with scrambled (C) or HIF2α shRNA. All experiments were done in triplicate. Error bars are ± 1 SEM. * p < 0.05.
To evaluate clonogenic cell survival by testing cell growth at low density, 500 exponentially growing cells were plated in triplicate in 6-well plates using serial dilution, and the growth of the cells was examined throughout 14 days in regular growth medium. Cells were fixed with 70% ethanol for 5 minutes and then stained with 0.5% crystal violet (in 25% methanol) for 20 minutes. Photos of stained plates were taken, and colonies of more than 50 cells were counted and used to calculate clonogenic survival.

[8] = test system: Sirt3^-/--MT-SIRT3^WT allografts; assay: Sirt3-/--MT-SIRT3^WT mammary allograft tumor growth (bioluminescence); assay type: in vivo; settings: GC4419 by IP every other day for five weeks; compared to control mice
Description: FIGS. 29a-29b are plots showing that the growth of murine mammary allograft tumors is inhibited by exposure to the MnSOD mimic GC4419 much more in cells without expression of deacetylation competent SIRT3. […] Mice were subsequently injected with luciferin potassium (120 mg/kg) every week and signal intensity will be quantified. Error bars represent one SD from the mean.
These cell lines were subsequently infected with and selected to express either a SIRT3 wild-type (Sirt3^-/--MT-SIRT3^WT) or deacetylation activity null (Sirt3^-/--MT-SIRT3^DN) gene and a lenti-luciferase to assess tumor growth by bioluminescence. Allograft tumor mice were split into four groups: (1) control, untreated Sirt3^-/--MT-SIRT3^DN; (2) GC4419 treated Sirt3^-/--MT-SIRT3^DN; (3) control, untreated Sirt3^-/--MT-SIRT3^WT; and (4) GC4419 treated Sirt3^-/--MT-SIRT3^WT. […] Accordingly, it was shown that the growth of murine mammary allograft tumors is inhibited by pharmacologically mimicking the activity of deacetylated lysine 68 MnSOD with a manganese pentaazamacrocyclic dismutase mimetic much more in tumors without deacetylation competent SIRT3. Further, this supports that selection of tumors displaying an AcK68 signature could increase response to treatment with a MnPAM dismutase mimetic (or other methods) alone or in combination with other therapies.

rat model = settings: cited from earlier work

SMILES: [Cl][Mn][Cl].c1cc2nc(c1)CN[C@H]1CCCC[C@@H]1NCCN[C@H]1CCCC[C@@H]1NC2 [GC4419]
- hydroxy-Tam resistance (clonogenic cell survival) (MCF7-HTR cells [1]): became sensitive to hydroxy-Tam
- hydroxy-Tam resistance (clonogenic cell survival) (T47D-HTR cells [2]): became sensitive to hydroxy-Tam
- Ki-67 IHC staining (MCF7-HTR cells [3]): decreased Ki-67 IHC staining
- Ki-67 IHC staining (T47D-HTR cells [4]): decreased Ki-67 IHC staining
- tumor cell survival (clonogenic) (LNCaP-ENZR cells): significant decrease in tumor cell survival in the presence of ENZ
- xenograft growth [5]: significant inhibition of xenograft growth
- SOX2 and OCT4 levels (MCF7-Cispl-R cells [6]): decreased SOX2 and OCT4 levels
- Cispl-R phenotype (MCF7-Cispl-R cells [7]): converted the Cispl-R cells to a sensitive phenotype
- tumor growth [8]: little change in tumor growth
- VEGFr inhibitor-induced pulmonary disease (rat model): attenuate VEGFr inhibitor-induced pulmonary disease
